Experimental findings from patent publication US20230083012A1, “DIHYDROPYRIMIDINE DERIVATIVES AND USES THEREOF IN THE TREATMENT OF HBV INFECTION OR OF HBV-INDUCED DISEASES” (priority 2019, published 2023) are described below.

By EC50 is commonly meant the concentration needed to bring the measured effect to its halfway point. One may read the CC50 as the concentration that lowers cell viability or growth by half. Lower therefore signals greater toxicity to the cells.

The test system of one series is HBV. Kind of series: Anti-HBV activity in HepG2.2.15 cells (HBV DNA in culture medium by qPCR). The format is cell-based. The note with it: Hepatitis B virus, HepG2.2.15, 144 h, HepG2.2.15 cells, 6 days treatment, HBV DNA in culture medium quantified by real-time PCR; read-out: EC50. The protocol: Example 2: Anti-Viral Assay in HepG2.2.15 Cells
(§1) HepG2.2.15 (the HepG2.2.15 cell line can be produced by transfection of the HepG2 cell line as described in Sells, Chen, and Acs 1987 (Proc. Natl. Acad. Sci. USA 84: 1005-1009), and the HepG2 cell line is available from ATCC® under number HIB-8065™)
(§2) HepG2.2.15 cells were plated into 96-well plate in 2% FBS culture medium at the density of 40,000 cells/well and 5,000 cells/well for HBV inhibitory activity and cytotoxicity determination, respectively. After incubation at 37° C., 5% CO2 overnight, cells were treated with medium containing compounds for 6 days with medium and compounds refreshed after 3 days of treatment. Each compound was tested in a 1:3 serial dilutions at 8 different concentrations in triplicate. The highest concentration of the compounds was 10 uM or 1 uM for anti-HBV activity assay and 100 uM for cytotoxicity determination.
The change of HBV DNA level induced by the compounds was assessed by quantitative real-time polymerase chain reaction (qPCR). Briefly, the HBV DNA in the culture medium was extracted using QIAamp 96 DNA Blood Kit according to the manual and then quantified by real-time PCR assay using the primers and probe in the table 2 below.
(§3) 2) DATA Analysis EC50 and CC50 values are calculated by the GRAPTIPAD PRISM software.
In general terms: Real-time PCR tracks product formation cycle by cycle.

The nature of series [1]: Cytotoxicity determination in HepG2.2.15 cells (CCK-8 cell viability). The settings on record: human, 6 days treatment, CCK-8 assay, highest concentration 100 uM. The format is cell-based. The protocol: as §1, §2
Cell viability was determined by CCK-8 assay. After 6 days of compounds treatment, 20 μl CCK-8 reagents were added to each well of cytotoxicity assay plates. Cell plates were incubated at 37° C., 5% CO2 for 2.5 h. The absorbance at 450 nm wavelength and the absorbance at 630 nm wavelength as reference was measured.
as §3
In general terms: Tetrazolium assays rely on reduction of a dye to a coloured formazan, in cell work by metabolically active cells.

Structures are written as SMILES.

Turning to `CCOC(=O)C1=C(CN2CC(F)(F)[C@@H]3[C@H]2CCN3CC(=O)O)NC(c2nccs2)=N[C@H]1c1cccc(F)c1C` (single isomer, unassigned) [Compound 6A], in the series on HBV, the EC50 came to 3.6 nM. This compound gave a CC50 at 6 days in series [1] of 30400 nM.

In the case of `CCOC(=O)C1=C(CN2CC(F)(F)[C@H]3[C@@H]2CCN3CC(=O)O)NC(c2nccs2)=N[C@H]1c1cccc(F)c1C` (single isomer, unassigned) [Compound 6B], in the series on HBV, the EC50 was determined as 382 nM. The compound also registered a CC50 at 6 days in series [1] of 34700 nM.

`CCOC(=O)C1=C(CN2CC(F)(F)[C@H]3[C@@H]2CCN3CC(=O)NS(C)(=O)=O)NC(c2nccs2)=N[C@H]1c1cccc(F)c1C` (single isomer, unassigned) [Compound 8A]: the EC50 in the series on HBV was determined as 6.9 nM. In series [1], this compound had a CC50 at 6 days of 36300 nM.

`CCOC(=O)C1=C(CN2CC(F)(F)[C@@H]3CN(C(=O)C(C)(C)C(=O)O)C[C@@H]32)NC(c2nccs2)=N[C@H]1c1cccc(F)c1C` (single isomer, unassigned) [Compound 9A]: the EC50 with HBV stood at 11.1 nM. In addition, the midpoint of cytotoxicity in series [1], the CC50 at 6 days, lay at 57800 nM.

Consider `CCOC(=O)C1=C(CN2CC(F)(F)[C@@H]3CN(C(=O)C4(C(=O)O)CC4)C[C@@H]32)NC(c2nccs2)=N[C@H]1c1cccc(F)c1C` (single isomer, unassigned) [Compound 10], for which the EC50 with HBV worked out at 80.5 nM. The CC50 at 6 days in series [1] turned out to be 69600 nM.

On to `CCOC(=O)C1=C(CN2C[C@H](F)[C@H]3[C@@H]2CCN3CC(C)(C)C(=O)O)NC(c2nccs2)=N[C@H]1c1cccc(F)c1C` (single isomer, unassigned) [Compound 11B], for which the EC50 with HBV is 31.4 nM. In addition, in series [1], the CC50 at 6 days worked out at 30000 nM.

Take `CCOC(=O)C1=C(CN2CC(F)(F)[C@@H]3CN(CC(C)(C)C(=O)O)C[C@@H]32)NC(c2nccs2)=N[C@H]1c1cccc(F)c1C` (single isomer, unassigned) [Compound 12B]: the EC50 with HBV stood at 8.2 nM. The compound also showed a CC50 at 6 days in series [1] of 86100 nM.

In the case of `CCOC(=O)C1=C(CN2CC(F)(F)[C@@H]3CN(CC(C)(C)C(=O)O)C(=O)[C@@H]32)NC(c2nccs2)=N[C@H]1c1cccc(F)c1C` (single isomer, unassigned) [Compound 13B], the EC50 with HBV worked out at 3.5 nM. Besides, half-maximal cytotoxicity in series [1] (CC50 at 6 days) was put at 38600 nM.

As to `CCOC(=O)C1=C(CN2CC(F)(F)[C@H]3CN(C(C)C(=O)O)C[C@H]32)NC(c2nccs2)=N[C@H]1c1cccc(F)c1C` (single isomer, unassigned) [Compound 14B], in the series on HBV, the EC50 came out at 102 nM. In series [1], this compound returned a CC50 at 6 days of 67900 nM.

With `CCOC(=O)C1=C(CN2CC(F)(F)[C@H]3CN([C@H](C)C(=O)O)C[C@H]32)NC(c2nccs2)=N[C@H]1c1cccc(F)c1C` (single isomer, unassigned) [Compound 14E], in the series on HBV, the EC50 is 62.3 nM. The compound further returned a CC50 at 6 days in series [1] of 85300 nM.

Turning to `CCOC(=O)C1=C(CN2CC(F)(F)[C@H]3CN([C@@H](C)C(=O)O)C[C@H]32)NC(c2nccs2)=N[C@H]1c1cccc(F)c1C` (single isomer, unassigned) [Compound 14F], the EC50 in the series on HBV was found to be 125 nM. Moreover, the CC50 at 6 days in series [1] is greater than 100000 nM.

With `CCOC(=O)C1=C(CN2CC(F)(F)[C@H]3CN(CC(C)C(=O)O)C[C@H]32)NC(c2nccs2)=N[C@H]1c1cccc(F)c1C` (single isomer, unassigned) [Compound 15B], the EC50 in the series on HBV stood at 27.2 nM. The compound also showed a CC50 at 6 days in series [1] greater than 100000 nM.

With `CCOC(=O)C1=C(CN2CC(F)(F)[C@H]3CN(C[C@@H](C)C(=O)O)C[C@H]32)NC(c2nccs2)=N[C@H]1c1cccc(F)c1C` (single isomer, unassigned) [Compound 15E], the EC50 in the series on HBV came to 22.5 nM. The midpoint of cytotoxicity in series [1], the CC50 at 6 days, lay at 41700 nM.

For the compound `CCOC(=O)C1=C(CN2CC(F)(F)[C@H]3CN(C[C@H](C)C(=O)O)C[C@H]32)NC(c2nccs2)=N[C@H]1c1cccc(F)c1C` (single isomer, unassigned) [Compound 15F], the EC50 in the series with HBV is 16.1 nM. Further, in series [1], the CC50 at 6 days came out at 39000 nM.

Regarding `CCOC(=O)C1=C(CN2CC(F)(F)[C@@H]3CN(CC4(C(=O)O)CC4)C[C@@H]32)NC(c2nccs2)=N[C@H]1c1cccc(F)c1C` (single isomer, unassigned) [Compound 16B], the EC50 with HBV stood at 68.6 nM. The compound also yielded a CC50 at 6 days in series [1] greater than 100000 nM.

On to `CCOC(=O)C1=C(CN2CC(F)(F)[C@@H]3CN(CCC(C)(C)C(=O)O)C[C@@H]32)NC(c2nccs2)=N[C@H]1c1cccc(F)c1C` (single isomer, unassigned) [Compound 17B], for which, in the series on HBV, the EC50 turned out to be 123 nM. In series [1], the CC50 at 6 days was determined as 72800 nM.

For the compound `CCOC(=O)C1=C(CN2CC(F)(F)[C@H]3CN([C@H]4C[C@H](C(=O)O)C4)C[C@H]32)NC(c2nccs2)=N[C@H]1c1cccc(F)c1C` (single isomer, unassigned) [Compound 18A], the half-maximal effective concentration (EC50) in the series with HBV is 61.1 nM. The compound further returned a CC50 at 6 days in series [1] of 66300 nM.

With `CCOC(=O)C1=C(CN2CC(F)(F)[C@H]3CN([C@H]4C[C@@H](C(=O)O)C4)C[C@H]32)NC(c2nccs2)=N[C@H]1c1cccc(F)c1C` (single isomer, unassigned) [Compound 18B], the EC50 in the series on HBV came to 73.7 nM. In series [1], this compound registered a CC50 at 6 days of 64200 nM.

For the compound `COC(=O)C1=C(CN2CC(F)(F)C3CN(CC(C)(C)C(=O)O)CC32)NC(c2nccs2)=N[C@H]1c1cccc(F)c1C` (single isomer, unassigned) [Compound 19B, 3-((cis)-3,3-difluoro-1-((6-(3-fluoro-2-methylphenyl)-5-(methoxycarbonyl)-2-(thiazol-2-yl)-3,6-dihydropyrimidin-4-yl)methyl)hexahydropyrrolo[3,4-b]pyrrol-5(1H)-yl)-2,2-dimethylpropanoic acid], the EC50 with HBV was determined as 49.3 nM. In addition, the CC50 at 6 days in series [1] is 24200 nM.

Regarding `COC(=O)C1=C(CN2CC(F)(F)[C@@H]3CN(CC(C)(C)C(=O)O)C[C@@H]32)NC(c2nccs2)=N[C@H]1c1ccc(F)cc1Cl` (single isomer, unassigned) [Compound 20B, 3-((cis)-1-((6-(2-chloro-4-fluorophenyl)-5-(methoxycarbonyl)-2-(thiazol-2-yl)-3,6-dihydropyrimidin-4-yl)methyl)-3,3-difluorohexahydropyrrolo[3,4-b]pyrrol-5(1H)-yl)-2,2-dimethylpropanoic acid], the EC50 in the series with HBV worked out at 39.5 nM. In addition, in series [1], the CC50 at 6 days is greater than 100000 nM.

Take `COC(=O)C1=C(CN2CC(F)(F)[C@@H]3CN(CC(C)(C)C(=O)O)C[C@@H]32)NC(c2nccs2)=N[C@H]1c1ccc(F)c(F)c1Cl` (single isomer, unassigned) [Compound 21B, 3-((cis)-1-((6-(2-chloro-3,4-difluorophenyl)-5-(methoxycarbonyl)-2-(thiazol-2-yl)-3,6-dihydropyrimidin-4-yl)methyl)-3,3-difluorohexahydropyrrolo[3,4-b]pyrrol-5(1H)-yl)-2,2-dimethylpropanoic acid]: the concentration giving a half-maximal response (EC50) in the series on HBV worked out at 22.7 nM. Moreover, it took 97300 nM to reach half-maximal cytotoxicity in series [1] (CC50 at 6 days).

Regarding `CCOC(=O)C1=C(CN2CC(F)(F)[C@@H]3CN(CC(C)(C)C(=O)O)C[C@@H]32)NC(c2nccs2)=N[C@H]1c1cccc(F)c1Cl` (single isomer, unassigned) [Compound 22B, 3-((cis)-1-((6-(2-chloro-3-fluorophenyl)-5-(ethoxycarbonyl)-2-(thiazol-2-yl)-3,6-dihydropyrimidin-4-yl)methyl)-3,3-difluorohexahydropyrrolo[3,4-b]pyrrol-5(1H)-yl)-2,2-dimethylpropanoic acid], the EC50 in the series with HBV came to 8.9 nM. Also, in series [1], the CC50 at 6 days was 70400 nM.

Turning to `CCOC(=O)C1=C(CN2CC(F)(F)[C@@H]3CN(C(=O)CC(C)(C)C(=O)O)C[C@@H]32)NC(c2nccs2)=N[C@H]1c1cccc(F)c1C` (single isomer, unassigned) [Compound 23B], in the series with HBV, the EC50 was found to be 24 nM. Further, in series [1], the CC50 at 6 days was 30200 nM.

`CCOC(=O)C1=C(CN2CC[C@]3(F)CN(CC(C)(C)C(=O)O)C(=O)[C@H]23)NC(c2nccs2)=N[C@H]1c1cccc(F)c1C` (single isomer, unassigned) [Compound 24A]: the EC50 in the series with HBV was 221 nM. In addition, the CC50 at 6 days in series [1] was found to be 48500 nM.

`CCOC(=O)C1=C(CN2CC[C@H]3C(=O)N(CC(C)(C)C(=O)O)C[C@H]32)NC(c2nccs2)=N[C@H]1c1cccc(F)c1C` (single isomer, unassigned) [Compound 25A]: in the series on HBV, the EC50 worked out at 32.4 nM. The compound further displayed a CC50 at 6 days in series [1] of 74500 nM.

For `CCOC(=O)C1=C(CN2CC(F)(F)[C@H]3[C@@H]2CCN3[C@H](C)C(=O)O)NC(c2nccs2)=N[C@H]1c1cccc(F)c1C` (single isomer, unassigned) [Compound 26E], in the series on HBV, the EC50 amounted to 5.2 nM. The compound also registered a CC50 at 6 days in series [1] of 28100 nM.

In the case of `CCOC(=O)C1=C(CN2CC(F)(F)[C@H]3[C@@H]2CCN3[C@@H](C)C(=O)O)NC(c2nccs2)=N[C@H]1c1cccc(F)c1C` (single isomer, unassigned) [Compound 26F], the EC50 in the series with HBV was 14.8 nM. In series [1], the midpoint of cytotoxicity, the CC50 at 6 days, lay at 41700 nM.
